Laboratory results published in PubChem BioAssay AID192 (DTP/NCI, 2004).
Where “and” joins values, the source holds several entries; their conditions need not be identical. Equal entries are not always repeated. Inconclusive results and toxic doses are left out.

System: BDF1 mice, B16 melanoma ip, median survival T/C
Assay: NCI In Vivo Anticancer Drug Screen. Data for tumor model B16 Melanoma (intraperitoneal) in B6D2F1 (BDF1) mice
Conditions: endpoint: median survival time, higher = longer survival
Procedure, shortened: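 Tumor-bearing mice received test compound or vehicle. Survival or tumor size was then measured in both groups. The treated-group figure was divided by the control-group figure.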

[1] = dose: 12.5 mg/kg/injection, schedule: Q01DX009 (ip), vehicle: saline with Tween-80
[2] = dose: 25.0 mg/kg/injection, schedule: Q01DX009 (ip), vehicle: saline with Tween-80
[3] = dose: 50.0 mg/kg/injection, schedule: Q01DX009 (ip), vehicle: saline with Tween-80
[4] = dose: 100.0 mg/kg/injection, schedule: Q01DX009 (ip), vehicle: Klucel (hydroxypropylcellulose) (HPC)
[5] = dose: 200.0 mg/kg/injection, schedule: Q01DX009 (ip), vehicle: Klucel (hydroxypropylcellulose) (HPC)
[6] = dose: 400.0 mg/kg/injection, schedule: Q01DX009 (ip), vehicle: Klucel (hydroxypropylcellulose) (HPC)
[7] = dose: 100.0 mg/kg/injection, schedule: Q01DX009 (ip), vehicle: saline with Tween-80
[8] = dose: 200.0 mg/kg/injection, schedule: Q01DX009 (ip), vehicle: saline with Tween-80
[9] = dose: 12.5 mg/kg/injection, schedule: Q01DX009 (ip), vehicle: Klucel (hydroxypropylcellulose) (HPC)
[10] = dose: 25.0 mg/kg/injection, schedule: Q01DX009 (ip), vehicle: Klucel (hydroxypropylcellulose) (HPC)
[11] = dose: 50.0 mg/kg/injection, schedule: Q01DX009 (ip), vehicle: Klucel (hydroxypropylcellulose) (HPC)
[12] = dose: 12.5 mg/kg/injection, schedule: Q01DX009 (ip), vehicle: saline
[13] = dose: 25.0 mg/kg/injection, schedule: Q01DX009 (ip), vehicle: saline
[14] = dose: 100.0 mg/kg/injection, schedule: Q04DX003 (ip), vehicle: saline with Tween-80
[15] = dose: 200.0 mg/kg/injection, schedule: Q04DX003 (ip), vehicle: saline with Tween-80
[16] = dose: 50.0 mg/kg/injection, schedule: Q01DX009 (ip), vehicle: saline

For O=[N+]([O-])c1cc(S(=O)(=O)OCC2CO2)ccc1Cl (stereo not given), the T/C (dose: 0.1 mg/kg/injection, schedule: Q01DX009 (ip), vehicle: saline with Tween-80) was 100 % of control, the T/C (dose: 0.2 mg/kg/injection, schedule: Q01DX009 (ip), vehicle: saline with Tween-80) was 93 % of control and the T/C (dose: 0.4 mg/kg/injection, schedule: Q01DX009 (ip), vehicle: saline with Tween-80) was 97 % of control. For the same compound, the T/C (dose: 0.8 mg/kg/injection, schedule: Q01DX009 (ip), vehicle: saline with Tween-80) was 95 % of control.
With O=[N+]([O-])c1ccc(Cl)c2c([N+](=O)[O-])cccc12 the T/C [1] was 100 % of control, the T/C [2] was 91 % of control and the T/C [3] was 93 % of control and 94 % of control.
CCCCCCCCC(O)CCCC (stereo not given) was tested, and the T/C [4] was 103 % of control, the T/C [5] was 95 % of control and the T/C [6] was 103 % of control.
For COc1cc2c(ccc3c4cc(OC)c(OC)cc4c[n+](C)c23)cc1O, the T/C [3] was 108 % of control, the T/C [7] was 97 % of control and the T/C [8] was 100 % of control.
In the case of O=C(CCCC(=O)N1CCOCC1)N1CCOCC1, the T/C (dose: 100.0 mg/kg/injection, schedule: Q04DX003 (ip), vehicle: Klucel (hydroxypropylcellulose) (HPC)) was 97 % of control, the T/C (dose: 200.0 mg/kg/injection, schedule: Q04DX003 (ip), vehicle: Klucel (hydroxypropylcellulose) (HPC)) was 95 % of control and the T/C (dose: 400.0 mg/kg/injection, schedule: Q04DX003 (ip), vehicle: Klucel (hydroxypropylcellulose) (HPC)) was 92 % of control.
With CC(C)Oc1ccc2c(c1)N(CCC1CCCCN1)c1ccccc1S2 (stereo not given) the T/C (dose: 1.56 mg/kg/injection, schedule: Q01DX009 (ip), vehicle: Klucel (hydroxypropylcellulose) (HPC)) was 97 % of control, the T/C (dose: 3.12 mg/kg/injection, schedule: Q01DX009 (ip), vehicle: Klucel (hydroxypropylcellulose) (HPC)) was 98 % of control and the T/C (dose: 6.25 mg/kg/injection, schedule: Q01DX009 (ip), vehicle: Klucel (hydroxypropylcellulose) (HPC)) was 112 % of control. For the same compound, the T/C [9] was 91 % of control and the T/C [10] was 86 % of control.
CCCCNC(=O)Oc1ccc(C(=O)OCC)cc1 was tested, and the T/C [2] was 96 % of control, the T/C [3] was 98 % of control and the T/C [7] was 95 % of control.
With CC(C)C(NC=O)C(=O)O (stereo not given) the T/C [3] was 101 % of control, the T/C [7] was 97 % of control and the T/C [8] was 92 % of control.
Clc1ccc(Cl)c(NNc2cc(Cl)ccc2Cl)c1 was tested, and the T/C [10] was 101 % of control, the T/C [11] was 95 % of control and the T/C [4] was 101 % of control.
In the case of Cc1ccc(NC(=S)NC(Cc2ccccc2)c2ccccc2)cc1 (stereo not given), the T/C [9] was 102 % of control, the T/C [10] was 100 % of control and the T/C (dose: 37.5 mg/kg/injection, schedule: Q04DX003 (ip), vehicle: Klucel (hydroxypropylcellulose) (HPC)) was 100 % of control. The T/C [11] was 100 % of control, the T/C (dose: 75.0 mg/kg/injection, schedule: Q04DX003 (ip), vehicle: Klucel (hydroxypropylcellulose) (HPC)) was 92 % of control and the T/C (dose: 150.0 mg/kg/injection, schedule: Q04DX003 (ip), vehicle: Klucel (hydroxypropylcellulose) (HPC)) was 100 % of control.
With Cc1ccc(C)c(NC(=O)Nc2ccc(Cl)cc2)c1 the T/C (dose: 50.0 mg/kg/injection, schedule: Q01DX009 (ip), vehicle: gum acacia) was 121 % of control, the T/C (dose: 100.0 mg/kg/injection, schedule: Q01DX009 (ip), vehicle: gum acacia) was 92 % of control and the T/C (dose: 200.0 mg/kg/injection, schedule: Q01DX009 (ip), vehicle: gum acacia) was 98 % of control.
In the case of C[C@]12CC[C@H]3C(=CCc4cc(O)ccc43)[C@@H]1C/C(=N\O)C2=O, the T/C [7] was 95 % of control, the T/C [8] was 102 % of control and the T/C (dose: 400.0 mg/kg/injection, schedule: Q01DX009 (ip), vehicle: saline with Tween-80) was 90 % of control.
In the case of CC12C=CC(=O)C=C1CCC1C2C(O)CC2(C)C1CCC2(O)C(=O)COC(=O)CCCc1ccc(N(CCCl)CCCl)cc1 (stereo not given), the T/C (dose: 15.0 mg/kg/injection, schedule: Q01DX011 (ip), vehicle: saline) was 119 % of control.
Nc1cc(N)cc(Cc2ccccc2)c1 was tested, and the T/C [11] was 101 % of control, the T/C [4] was 93 % of control and the T/C [5] was 100 % of control.
CCCCCCCCCC(=O)OC(C)C(=O)N(CCCC)CCCC (stereo not given) was tested, and the T/C [2] was 98 % of control, the T/C [3] was 97 % of control and the T/C [7] was 88 % of control.
CC1(C)OC2C(COC(=O)c3ccc([N+](=O)[O-])cc3)OC(NC(=O)N(CCCl)N=O)C2O1 (stereo not given) was tested, and the T/C (dose: 6.25 mg/kg/injection, schedule: Q01DX009 (ip), vehicle: saline with Tween-80) was 158 % of control, the T/C [1] was 215 % of control and the T/C [2] was 204 % of control and 283 % of control. The T/C [3] was 206 % of control.
For O=C1CN(CCN2CC(=O)NC(=O)C2)CC(=O)N1, the T/C (dose: 15.0 mg/kg/injection, schedule: Q01DX009 (oral), vehicle: saline) was 115 % of control and the T/C (dose: 30.0 mg/kg/injection, schedule: Q01DX009 (oral), vehicle: saline) was 122 % of control.
CNC(=O)ON(C(C)=O)C(=O)NC was tested, and the T/C [12] was 87 % of control and the T/C [13] was 88 % of control.
With CN(C)N=Nc1ccccc1C(=O)NC#N the T/C (dose: 18.75 mg/kg/injection, schedule: Q01DX009 (ip), vehicle: Klucel (hydroxypropylcellulose) (HPC)) was 95 % of control and the T/C (dose: 37.5 mg/kg/injection, schedule: Q01DX009 (ip), vehicle: Klucel (hydroxypropylcellulose) (HPC)) was 105 % of control.
With CCCN(CCC)CCCCCCO the T/C [3] was 102 % of control, the T/C [7] was 102 % of control and the T/C [8] was 99 % of control.
With CCCCC(C=O)(C=C=C(C)C)CC (stereo not given) the T/C [14] was 88 % of control and the T/C [15] was 95 % of control.
For CC(C)CCCCCCCCCCCCC(=O)NCC(=O)NC1C(O)C(O)C(Nc2ncnc3nc[nH]c23)OC1C(O)CO (stereo not given), the T/C (dose: 0.25 mg/kg/injection, schedule: Q01DX009 (ip), vehicle: Klucel (hydroxypropylcellulose) (HPC)) was 114 % of control, the T/C (dose: 1.0 mg/kg/injection, schedule: Q01DX009 (ip), vehicle: saline) was 151 % of control and the T/C (dose: 62.5 micrograms/kg/injection, schedule: Q01DX009 (ip), vehicle: saline) was 98 % of control. The T/C (dose: 125.0 micrograms/kg/injection, schedule: Q01DX009 (ip), vehicle: saline) was 98 % of control, the T/C (dose: 250.0 micrograms/kg/injection, schedule: Q01DX009 (ip), vehicle: saline) was 98 % of control and the T/C (dose: 500.0 micrograms/kg/injection, schedule: Q01DX009 (ip), vehicle: saline) was 107 % of control.
With O=C(Nc1cccc(Cl)c1)ON1C(=O)C2C(C1=O)C1(Cl)C(Cl)C(Cl)C2(Cl)C1(Cl)Cl (stereo not given) the T/C [1] was 87 % of control and the T/C [2] was 96 % of control.
For NCCC(=O)OC1CCCc2c(O)c3c(c(O)c21)C(=O)c1ccccc1C3=O (stereo not given), the T/C [12] was 96 % of control, the T/C [13] was 100 % of control and the T/C [16] was 93 % of control.
CCC(=O)Oc1ccc(/C=N/NC(N)=S)nc1 was tested, and the T/C [16] was 153 % of control and the T/C (dose: 100.0 mg/kg/injection, schedule: Q01DX009 (ip), vehicle: saline) was 121 % of control.
With COc1ccc2nc3cc(Cl)ccc3c(NC(C)CCCN(CCCl)CCCl)c2c1 (stereo not given) the T/C (dose: 0.12 mg/kg/injection, schedule: Q01DX009 (ip), vehicle: saline) was 114 % of control, the T/C (dose: 0.25 mg/kg/injection, schedule: Q01DX009 (ip), vehicle: saline) was 105 % of control and the T/C (dose: 0.5 mg/kg/injection, schedule: Q01DX009 (ip), vehicle: saline) was 105 % of control. For the same compound, the T/C (dose: 0.62 mg/kg/injection, schedule: Q04DX003 (ip), vehicle: saline with Tween-80) was 110 % of control and the T/C (dose: 1.25 mg/kg/injection, schedule: Q04DX003 (ip), vehicle: saline with Tween-80) was 110 % of control.
c1ccc(CNC(Cc2ccccc2)c2ccc(OCc3ccccc3)cc2)cc1 (stereo not given) was tested, and the T/C [4] was 106 % of control, the T/C [5] was 96 % of control and the T/C [6] was 93 % of control.
In the case of CN(C)CCOc1ccccn1, the T/C [7] was 94 % of control and the T/C [8] was 97 % of control.
In the case of O=S(=O)(c1ccc(NC(=S)N/N=C/c2ccccc2O)cc1)N1CCCCC1, the T/C (dose: 25.0 mg/kg/injection, schedule: Q01DX009 (ip), vehicle: olive oil, sesame oil, peanut oil) was 87 % of control and the T/C (dose: 50.0 mg/kg/injection, schedule: Q01DX009 (ip), vehicle: olive oil, sesame oil, peanut oil) was 87 % of control.
In the case of OC1CCCC2CCC[N-]C12.OC1CCCC2CCC[N-]C12.[Mn+2] (stereo not given), the T/C [9] was 109 % of control, the T/C [10] was 95 % of control and the T/C [11] was 105 % of control. The T/C [4] was 94 % of control and the T/C [5] was 98 % of control.
O=C(O)/C=C/c1ccc(/C=C/C(=O)O)cc1 was tested, and the T/C [14] was 111 % of control, the T/C [15] was 102 % of control and the T/C (dose: 400.0 mg/kg/injection, schedule: Q04DX003 (ip), vehicle: saline with Tween-80) was 100 % of control.
For CCOc1ccc(Br)cc1/C=N\N=C\c1cc(Br)ccc1OCC, the T/C [9] was 100 % of control, the T/C [10] was 88 % of control and 105 % of control and the T/C [11] was 89 % of control and 94 % of control.
